Measurements from ChEMBL document CHEMBL1201862, “PubChem BioAssay data set” (2004).
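Grown in 96-well plates, cells were treated for 48 hours with each compound at five concentrations. Insufficient inhibition: endpoint recorded as highest concentration tested. GI50 = concentration required for 50% inhibition of growth.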 Active and inactive are the calls of the source. No stated cut-off is given here; in the data, active = GI50 up to about 1.1 µM and inactive = higher.

Key:
Test in all cases: DTP human tumour cell line panel, 48 h
OVCAR-4 = system: OVCAR-4
NCI-H460 = system: NCI-H460
OVCAR-8 = system: OVCAR-8
LOX IMVI = system: LOX IMVI
BT-549 = system: BT-549
A498 = system: A498
T47D = system: T47D
786-0 = system: 786-0
MCF7 = system: MCF7
IGROV-1 = system: IGROV-1
DU-145 = system: DU-145
NCI-H23 = system: NCI-H23
UACC-257 = system: UACC-257
TK-10 = system: TK-10
ACHN = system: ACHN
UACC-62 = system: UACC-62
A549 = system: A549
K562 = system: K562
MOLT-4 = system: MOLT-4
OVCAR-3 = system: OVCAR-3

| SMILES | GI50 (OVCAR-4) | GI50 (NCI-H460) | GI50 (OVCAR-8) | GI50 (LOX IMVI) | GI50 (BT-549) | GI50 (A498) | GI50 (T47D) | GI50 (786-0) | GI50 (MCF7) | GI50 (IGROV-1) | GI50 (DU-145) | GI50 (NCI-H23) | GI50 (UACC-257) | GI50 (TK-10) | GI50 (ACHN) | GI50 (UACC-62) | GI50 (A549) | GI50 (K562) | GI50 (MOLT-4) | GI50 (OVCAR-3) |
| --- | --- | --- | --- | --- | --- | --- | --- | --- | --- | --- | --- | --- | --- | --- | --- | --- | --- | --- | --- | --- |
| C[C@H]1CC[C@]2(NC1)O[C@H]1C[C@H]3[C@@H]4CC[C@H]5C[C@@H](O[C@@H]6O[C@H](CO)[C@H](O[C@@H]7O[C@H](CO)[C@@H](O)[C@H](O[C@@H]8OC[C@@H](O)[C@H](O)[C@H]8O)[C@H]7O[C@@H]7O[C@H](CO)[C@@H](O)[C@H](O)[C@H]7O)[C@H](O)[C@H]6O)CC[C@]5(C)[C@H]4CC[C@]3(C)[C@H]1[C@@H]2C [TOMATINE] | 1.39 µM (inactive) | 2.18 µM (inactive) | 2.24 µM (inactive) | 2.17 µM (inactive) | 2.37 µM (inactive) | 1.87 µM (inactive) | 1.97 µM (inactive) | 1.29 µM (inactive) | 2.32 µM (inactive) | 0.729 µM (active) | 1.64 µM (inactive) | 1.65 µM (inactive) | 2.12 µM (inactive) | 1.54 µM (inactive) | 1.71 µM (inactive) | 1.01 µM (active) | 1.55 µM (inactive) | 2.74 µM (inactive) | 2.41 µM (inactive) | 2.03 µM (inactive) |
| COc1cc2c(cc1OCCCNC(=O)c1cc3ccccc3[nH]1)N=C[C@@H]1CCCN1C2=O | 0.403 µM (active) | 0.675 µM (active) | 0.301 µM (active) | 0.421 µM (active) | 0.0736 µM (active) | 0.0527 µM (active) | 0.229 µM (active) | 0.237 µM (active) | 0.258 µM (active) | 0.277 µM (active) | 0.223 µM (active) | 0.504 µM (active) | 0.448 µM (active) | 0.359 µM (active) | 0.347 µM (active) | 0.234 µM (active) | 0.632 µM (active) | 0.243 µM (active) | 0.125 µM (active) | 0.306 µM (active) |
| COC(=O)c1cc2c(o1)Sc1ccccc1NC2=O | > 100 µM (inactive) | > 100 µM (inactive) | 68.5 µM (inactive) | > 100 µM (inactive) | > 100 µM (inactive) | > 100 µM (inactive) | > 100 µM (inactive) | 87.1 µM (inactive) | > 100 µM (inactive) | > 100 µM (inactive) | > 100 µM (inactive) | > 100 µM (inactive) | > 100 µM (inactive) | > 100 µM (inactive) | 27.1 µM (inactive) | > 100 µM (inactive) | > 100 µM (inactive) | > 100 µM (inactive) | > 100 µM (inactive) | > 100 µM (inactive) |
| CCCCC[C@@H]1OCO[C@@]2(C)/C=C(C)\C=C/C(=O)O[C@H]([C@@H](C)[C@@H](O)[C@H](C)[C@@]3(O)C[C@@H](O[C@H]4C[C@@H](O)[C@H](O)[C@@H](C)O4)[C@H](C)[C@@H](C)O3)[C@@H](OC)/C=C\C=C(\C)C[C@@H]1[C@@H]2O (stereo in doubt) | < 0.005 µM (active) | < 0.005 µM (active) | < 0.005 µM (active) | < 0.005 µM (active) | 0.5 µM (active) | < 0.005 µM (active) | < 0.005 µM (active) | < 0.005 µM (active) | < 0.005 µM (active) | < 0.005 µM (active) | < 0.005 µM (active) | 0.5 µM (active) | < 0.005 µM (active) | 0.119 µM (active) | < 0.005 µM (active) | < 0.005 µM (active) | < 0.005 µM (active) | < 0.005 µM (active) | < 0.005 µM (active) | < 0.005 µM (active) |
| NC1=Nc2ccccc2Sc2nccn21 | 30.6 µM (inactive) | 31 µM (inactive) | 31.1 µM (inactive) | 17.8 µM (inactive) | 54.3 µM (inactive) | 28.2 µM (inactive) | 24.7 µM (inactive) | 24.6 µM (inactive) | 44.3 µM (inactive) | 23.9 µM (inactive) | 37.7 µM (inactive) | 23.9 µM (inactive) | 31.8 µM (inactive) | 30.6 µM (inactive) | 30 µM (inactive) | 28.2 µM (inactive) | 41.7 µM (inactive) | 19.6 µM (inactive) | 20.2 µM (inactive) | 18.6 µM (inactive) |
| O=C(O)c1c(O)c2cc(Br)ccc2oc1=O | > 100 µM (inactive) | > 100 µM (inactive) | > 100 µM (inactive) | > 100 µM (inactive) | > 100 µM (inactive) | > 100 µM (inactive) | > 100 µM (inactive) | > 100 µM (inactive) | > 100 µM (inactive) | > 100 µM (inactive) | > 100 µM (inactive) | > 100 µM (inactive) | > 100 µM (inactive) | > 100 µM (inactive) | > 100 µM (inactive) | > 100 µM (inactive) | > 100 µM (inactive) | > 100 µM (inactive) | > 100 µM (inactive) | > 100 µM (inactive) |
| CCOC(=O)C(NNS(=O)(=O)c1ccc(C)cc1)S(=O)(=O)C(F)(F)C(F)(F)C(F)(F)C(F)(F)F (configuration not stated) | > 100 µM (inactive) | > 100 µM (inactive) | > 100 µM (inactive) | > 100 µM (inactive) | > 100 µM (inactive) | > 100 µM (inactive) | > 100 µM (inactive) | > 100 µM (inactive) | > 100 µM (inactive) | > 100 µM (inactive) | > 100 µM (inactive) | > 100 µM (inactive) | > 100 µM (inactive) | > 100 µM (inactive) | > 100 µM (inactive) | > 100 µM (inactive) | > 100 µM (inactive) | > 100 µM (inactive) | 81.8 µM (inactive) | > 100 µM (inactive) |
| CC(=O)NNc1nc(C)c(C(/C=C/c2ccccc2O)=N/NC(=O)c2ccncc2)s1 | > 100 µM (inactive) | > 100 µM (inactive) | > 100 µM (inactive) | > 100 µM (inactive) | > 100 µM (inactive) | > 100 µM (inactive) | > 100 µM (inactive) | > 100 µM (inactive) | > 100 µM (inactive) | > 100 µM (inactive) | > 100 µM (inactive) | > 100 µM (inactive) | > 100 µM (inactive) | > 100 µM (inactive) | > 100 µM (inactive) | > 100 µM (inactive) | > 100 µM (inactive) |  | > 100 µM (inactive) | > 100 µM (inactive) |
| CC1=CC2C(C(C)C)CC1C1C(=O)OC(=O)C21 (configuration not stated) | 91 µM (inactive) | > 100 µM (inactive) | 65.6 µM (inactive) | > 100 µM (inactive) | 84.1 µM (inactive) | > 100 µM (inactive) | 49.8 µM (inactive) | > 100 µM (inactive) | > 100 µM (inactive) | 14.4 µM (inactive) | > 100 µM (inactive) | > 100 µM (inactive) | > 100 µM (inactive) | 45.8 µM (inactive) | > 100 µM (inactive) | > 100 µM (inactive) | > 100 µM (inactive) | 39.7 µM (inactive) |  | 23.2 µM (inactive) |
| Cc1cnc2c(c1)C(=O)N(c1ccc([N+](=O)[O-])cc1)S2(=O)=O | 78 µM (inactive) | > 100 µM (inactive) | > 100 µM (inactive) | 73.5 µM (inactive) | 36.1 µM (inactive) | 68.4 µM (inactive) | > 100 µM (inactive) | > 100 µM (inactive) | > 100 µM (inactive) | 30.3 µM (inactive) | > 100 µM (inactive) | > 100 µM (inactive) | > 100 µM (inactive) | > 100 µM (inactive) | > 100 µM (inactive) | 75.5 µM (inactive) | 95.9 µM (inactive) |  | > 100 µM (inactive) | > 100 µM (inactive) |
| C[C@H](CCC(=O)O)[C@H]1CC[C@H]2[C@@H]3[C@H](O)[C@H](O)[C@@H]4C[C@H](O)CC[C@]4(C)[C@H]3CC[C@]12C [HYOCHOLIC ACID] | > 100 µM (inactive) | > 100 µM (inactive) | > 100 µM (inactive) | 30.2 µM (inactive) | > 100 µM (inactive) | > 100 µM (inactive) | > 100 µM (inactive) | > 100 µM (inactive) | > 100 µM (inactive) | > 100 µM (inactive) | > 100 µM (inactive) | > 100 µM (inactive) | > 100 µM (inactive) | > 100 µM (inactive) | > 100 µM (inactive) | > 100 µM (inactive) | > 100 µM (inactive) | > 100 µM (inactive) | > 100 µM (inactive) |  |
| CC1=NC2=Nc3nc(C)cc[n+]3CN2C=C1 | > 100 µM (inactive) | 43.2 µM (inactive) | > 100 µM (inactive) | 29.8 µM (inactive) | 49.3 µM (inactive) | > 100 µM (inactive) | 70 µM (inactive) | 48.3 µM (inactive) | > 100 µM (inactive) | 39.9 µM (inactive) | > 100 µM (inactive) | > 100 µM (inactive) | > 100 µM (inactive) | 88.3 µM (inactive) | > 100 µM (inactive) | 44.2 µM (inactive) | 79.3 µM (inactive) |  |  | > 100 µM (inactive) |
| CCCC(=O)OCC1(CO)C/C(=C/CC(C(C)C)C(C)C)C(=O)O1 (configuration not stated) | > 100 µM (inactive) | > 100 µM (inactive) | > 100 µM (inactive) | 17.4 µM (inactive) | > 100 µM (inactive) | > 100 µM (inactive) | > 100 µM (inactive) | > 100 µM (inactive) | > 100 µM (inactive) | > 100 µM (inactive) | > 100 µM (inactive) | > 100 µM (inactive) | > 100 µM (inactive) | > 100 µM (inactive) | > 100 µM (inactive) | > 100 µM (inactive) | > 100 µM (inactive) |  |  | > 100 µM (inactive) |
